Results from US10517803B2, “Individual's sensitivity to fluoride poisoning” (priority 2017, dated 2019).

Assays:
people = details: most people; cited from earlier work
rats [1] = details: orally in rats; cited from earlier work
rats [2] = assay: Median lethal dose (LD50) orally in rats; type: in vivo; details: extrapolated from oral rat LD50 to a 100 kg adult

Compound | highest level of daily nutrient intake likely to pose no risk of adverse health effects (people) | median lethal dose (LD50) (rats [1]) | median lethal dose (LD50), corresponding amount for a 100 kg adult (rats [2])
F [Fluoride] | 10 mg/day | – | –
F[Si-2](F)(F)(F)(F)F.[Na+].[Na+] [sodium fluorosilicate] | – | 125 mg/kg | 12.5 g
